The term MIC80 denotes an inhibitory concentration at the 80% level, which refers to growth in some studies and to a panel of isolates in others.

This note sets out measurements from US12570647B2 (Saint Louis University, priority 2021, dated 2026).

Test in all cases: S. aureus MIC80 determination, broth microdilution (CLSI) in CAMHB
Format in all cases: cell-based
On the technique in general: In broth dilution the organism is exposed to a series of concentrations in liquid medium.

For one experiment, the system named is S. aureus AR222. Particulars: Table 2. As to the method:
(§1) S. Aureus MIC80 determinations in S. aureus ATCC25923 or in multidrug-resistant strains AR215, AR217 and AR255. MIC80's were determined by the broth microdilution method recommended by the Clinical and Laboratory Standards Institute (CLSI) in Cation-adjusted Mueller-Hinton broth (CAMHB). (Cao et al., 2018). In the preliminary screening, three compound concentrations were used: 5.8, 20.4, and 71.4 μM; for quantitative MIC80 measurements, a 1.5-fold dilution series of the compounds was prepared in CAMHB. Overnight bacterial culture was added to the diluted compounds in a 96-well plate after adjusting the bacterial concentration to achieve a 5×10^5 CFU/mL final concentration. After 16-24 h incubation at 35±2° C., the plates were read at 600 nm in a microplate reader. The MIC80 was defined as the concentration of an antibacterial agent that inhibited bacteria growth ≥80% compared to vehicle-treated control cultures. All values were determined at least twice independently, and the average number is reported.
(§2) AR215, AR217, and AR222 were obtained from the Centers for Disease Control and Prevention (CDC). AR215 and AR217 are cefoxitin-screen positive (resistant to cefoxitin) and resistant to oxacillin, which are MRSA strains. AR215 is also resistant to clindamycin, erythromycin, levofloxacin, and penicillin. AR217 is also resistant to levofloxacin, penicillin, and Trimethoprim-sulfamethoxazole. AR222 is only resistant to penicillin.

Experiment [1] has as its system S. aureus AR217 (MRSA, multidrug-resistant strain). The following applies: Table 2. Here is the method:
as §1, §2

The test system of experiment [2] is S. aureus AR215 (MRSA, multidrug-resistant strain). The following applies: Table 2. As to the method:
as §1, §2

In another experiment the test system is S. aureus ATCC25923. The following applies: Table 2; S. aureus ATCC 25923; read-out: MIC80.

With clorofloxacin [reference compound], the MIC80 against S. aureus AR222 is reported as 0.52 µM; in experiment [1], “.30 µM”; in experiment [2], “.66 µM”; in the experiment on S. aureus ATCC25923, 40.52 µM.
